Values quoted from earlier work in patent publication US7851424B2, “Antimicrobial hand wash” (GOJO Industries, Inc., priority 2006, dated 2010).

Oc1cc(Cl)ccc1Oc1ccc(Cl)cc1Cl [Triclosan, 2,4,4′-trichloro-2′hydroxy-diphenylether]
pKa: 7.4
